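1) Cells in 96-well plates. 2) Compound, 48 h, 5 concentrations. 3) Linear interpolation between surrounding doses. 4) Unreached endpoint = highest concentration. Abbreviation: GI50, concentration required for 50% inhibition of growth.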 The source made the active and inactive calls. No stated cut-off is given here; in the data, active = GI50 up to about 1.1 µM and inactive = higher.
Tests used:
Assay in all cases: DTP human tumour cell line panel, 48 h
[1] = test system: OVCAR-8
[2] = test system: SF-268
[3] = test system: TK-10
[4] = test system: NCI-H522
[5] = test system: OVCAR-5
[6] = test system: HCT-15
[7] = test system: OVCAR-4
[8] = test system: DU-145
[9] = test system: SK-OV-3
[10] = test system: RPMI-8226
[11] = test system: PC-3
[12] = test system: SF-539
[13] = test system: SK-MEL-2
[14] = test system: HCT-116
[15] = test system: 786-0
[16] = test system: NCI-H23
[17] = test system: SK-MEL-5
[18] = test system: MDA-N
[19] = test system: A498
[20] = test system: NCI-H460
[21] = test system: LOX IMVI
[22] = test system: MDA-MB-435
[23] = test system: HOP-62
[24] = test system: SNB-75
[25] = test system: HCC 2998
[26] = test system: HOP-92
[27] = test system: SW-620
[28] = test system: HT-29
[29] = test system: SR
[30] = test system: A549
[31] = test system: BT-549
[32] = test system: UACC-257
[33] = test system: T47D
[34] = test system: K562
[35] = test system: RXF 393
[36] = test system: OVCAR-3
[37] = test system: MOLT-4
[38] = test system: UO-31
[39] = test system: CAKI-1
[40] = test system: ACHN
[41] = test system: MDA-MB-231
[42] = test system: MCF7
[43] = test system: NCI-H226
[44] = test system: COLO 205
[45] = test system: SF-295
[46] = test system: NCI/ADR-RES
[47] = test system: KM12
[48] = test system: SN12C
[49] = test system: M14
[50] = test system: SK-MEL-28
[51] = test system: SNB-19
[52] = test system: UACC-62
[53] = test system: CCRF-CEM
[54] = test system: IGROV-1
[55] = test system: Hs-578T
[56] = test system: Malme-3M
[57] = test system: HL-60
[58] = test system: EKVX
[59] = test system: U-251

Measured: GI50

N=C(N)N/N=C/c1c(Cl)nc2sccn12
> 10 µM: [6]
inactive: [1] 50.4 µM | [2] 24.2 µM | [3] 52.2 µM | [4] 27 µM | [5] 28.8 µM | [7] 19.2 µM | [8] 44.4 µM | [9] 60.1 µM | [10] 19.4 µM | [11] 30.4 µM | [12] 19.8 µM | [13] > 10 µM | [14] 15.3 µM | [15] 17.1 µM | [16] 46.6 µM | [17] 15.8 µM | [18] 30.1 µM | [19] 28.2 µM | [20] 16.7 µM | [21] 18.9 µM | [22] 36.1 µM | [23] 21.5 µM | [24] 38.1 µM | [25] 16.9 µM | [26] 21.1 µM | [27] 18 µM | [28] 17.3 µM | [29] 22.9 µM | [30] 30.5 µM | [31] 26.9 µM | [32] 23.4 µM | [33] 26.5 µM | [34] 25.6 µM | [35] 28.2 µM | [36] 24.1 µM | [37] 16.4 µM | [38] 34.7 µM | [39] 52.6 µM | [40] 16.8 µM | [41] 33.6 µM | [42] 26.9 µM | [43] 25.4 µM | [44] 14.9 µM | [45] 21.4 µM | [46] 55.2 µM | [47] 16.4 µM | [48] 38.5 µM | [49] 15.5 µM | [50] 35.4 µM | [51] 35.8 µM | [52] 31.8 µM | [53] 21.1 µM | [54] 53.5 µM | [55] 18.2 µM | [56] 23.3 µM | [57] 17.4 µM | [58] 42.9 µM | [59] 29.9 µM

COP(=O)(OC)c1ccc(NCc2cc(O)ccc2O)cc1
21.3 µM: [6]
inactive: [1] 26.8 µM | [2] 17.6 µM | [3] 23.4 µM | [4] 17.3 µM | [5] 23.9 µM | [7] 27 µM | [8] 36.8 µM | [9] > 100 µM | [10] 19.5 µM | [11] > 60.4 µM | [12] 21.2 µM | [13] 46.6 µM | [14] 24.8 µM | [15] 25.2 µM | [16] 34.1 µM | [17] 22.1 µM | [18] 26.3 µM | [19] 92.7 µM | [20] 22.1 µM | [21] 26.3 µM | [22] 26.8 µM | [23] 35.8 µM | [24] 29.5 µM | [25] 23 µM | [26] 21.4 µM | [27] 42 µM | [28] 24.8 µM | [29] 14.3 µM | [30] > 100 µM | [31] 17.9 µM | [32] 22.2 µM | [33] 28.8 µM | [34] 30.5 µM | [35] 25.3 µM | [36] 6.34 µM | [37] 30.2 µM | [38] 15.5 µM | [39] 19.2 µM | [40] 18.3 µM | [41] 26.9 µM | [42] 28.8 µM | [43] 38.9 µM | [44] 27.7 µM | [45] 17.3 µM | [46] 31 µM | [47] 19.9 µM | [48] 30.3 µM | [49] 13.8 µM | [50] 30.2 µM | [51] 37.8 µM | [52] 19.5 µM | [53] 18.8 µM | [54] 30.3 µM | [55] 24.8 µM | [56] 18.9 µM | [57] 21.4 µM | [58] 23.1 µM | [59] 30.6 µM

CC(=O)O[C@@H]1[C@H]2[C@@H](OC(=O)c3ccccc3)[C@@H](C)C[C@]2(O)[C@H](OC(C)=O)[C@@]2(C)[C@@H]3C[C@@](C)(OC(C)=O)C[C@@H](OC(C)=O)[C@@]3(OC(C)=O)C[C@@]12C
> 10 µM: [6]
inactive: [1] > 10 µM | [2] > 10 µM | [3] > 10 µM | [4] > 10 µM | [5] > 10 µM | [7] > 10 µM | [8] > 10 µM | [9] > 10 µM | [11] > 10 µM | [12] > 10 µM | [13] > 10 µM | [14] > 10 µM | [15] > 10 µM | [16] > 10 µM | [17] > 10 µM | [18] > 10 µM | [19] > 10 µM | [20] > 10 µM | [21] > 10 µM | [22] > 10 µM | [23] > 10 µM | [24] > 10 µM | [25] > 10 µM | [26] > 10 µM | [27] > 10 µM | [29] > 10 µM | [31] > 10 µM | [32] > 10 µM | [33] > 10 µM | [34] > 10 µM | [35] > 10 µM | [36] > 10 µM | [37] > 10 µM | [38] > 10 µM | [39] > 10 µM | [40] > 10 µM | [41] > 10 µM | [42] > 10 µM | [43] > 10 µM | [44] > 10 µM | [45] > 10 µM | [46] > 10 µM | [47] > 10 µM | [48] > 10 µM | [49] > 10 µM | [51] > 10 µM | [52] > 10 µM | [53] > 10 µM | [54] > 10 µM | [55] > 10 µM | [57] > 10 µM | [58] > 10 µM | [59] > 10 µM
